In patent US20250296938A1, “Compounds that Interact with the Ras Superfamily for the Treatment of Cancers, Inflammatory Diseases, Rasopathies, and Fibrotic Disease” (SHY Therapeutics, LLC, priority 2018, published 2025):

These compounds were tested against T1, KRas G12D mutant (Homo sapiens, UniProt P01116, G12D) (assay: Ras GTP binding domain inhibition assay (Cy3-GTP/Cy5-GTP competition)). Conditions: 20 μM; with SOS; read-out: KRas G-12D mutant + SOS: % inh.
T1 construct: fused on or other part: His tag, used for capture on nickel-coated plates
Experimental: (§1) The following method was developed as specific assay for the following proteins: KRas wild type, KRas Q61H mutant, KRas G12C mutant, KRas G12D mutant, HRas wild type, Rac-1, and Rho-A.
(§2) • 25 mM Tris-HCl, pH 7.4 • 27 mM KCl • 137 mM NaCl • 1 mM MgCl2 • 1 mM DTT
(§3) • 50 mM Tris-HCl, pH 7.0 • 1 mM MgCl2 • 1 mM DTT
(§4) The small GTPases proteins: KRas wild type. KRas Q61H mutant, KRas G12C mutant, KRas G12D mutants, HRas wild type, Rac-1, and Rho-A were expressed as His-tagged proteins. In addition, the Guanosine nucleotide Exchange Factor (GEF) Sos protein (residues 556-1049) was expressed as a His-tagged protein. In cells, the guanine nucleotide exchange factor Sos protein promotes activation of Ras proteins by stimulating an exchange of GDP for GTP. The inclusion of Sos to the Ras GTP binding domain inhibition assay may be considered as an alternative representation of physiological cellular conditions for evaluating the inhibitory activity of some of the tested small molecules.
(§5) For the assay, all purified small GTPases proteins were diluted in Buffer-I or Buffer-II to a final concentration of 10-30 μg/mL. 200 μL of each diluted protein was added to a nickel-coated 96-well plate and incubated overnight at 4° C. Then the protein solution was discarded and 200 μL of Buffer-I or Buffer-II was added to each well in the presence of 1% DMSO. Compounds to be tested were added to the protein-coated wells at final concentration of 20 μM, and incubated for 3 hours at room temperature with and without […] of Sos added to the final hour of the incubation. When performing IC50 measurements a serial dilution of all tested concentrations was added. Then Cy3-GTP or Cy5-GTP was added to each well to a final concentration of 100 nM. The labeled GTP was incubated for 45 minutes at room temperature. Following GTP incubation, wells were washed 3× in Buffer-I or Buffer-II and 200 μL of Buffer-I or Buffer-II was added to each well. Following washes, the amount of bound labeled-GTP was measured using a SpectraMax M3 (Molecular Devices).

inhibition at 20 µM [%] | Structure (SMILES)
26 to 50 | COC(=O)c1nc(C2NCCN2C)nc(O)c1O (centres unmarked)
76 to 100 | COC1CCN(c2nc(-c3nccn3C)nc3sc(-c4cnn(C)c4)c(-c4ccccc4)c23)C1.Cl (centres unmarked)
51 to 75 | COc1ccc(-c2sc3nc(-c4nccn4C)nc(N4CCC(OC)C4)c3c2-c2ccccc2)cn1.Cl (centres unmarked)
51 to 75 | COC1CCN(c2nc(-c3nccn3C)nc3sc(-c4ccnn4C)c(-c4ccccc4)c23)C1.Cl (centres unmarked)
51 to 75 | COc1ncccc1-c1sc2nc(-c3nccn3C)nc(N3CCC(OC)C3)c2c1-c1ccccc1.Cl (centres unmarked)
51 to 75 | COC1CCN(c2nc(-c3nccn3C)nc3sc(-c4cccnc4)c(-c4ccccc4)c23)C1.Cl (centres unmarked)
51 to 75 | COc1cc(-c2sc3nc(-c4nccn4C)nc(N4CCC(OC)C4)c3c2-c2ccccc2)ccn1.Cl (centres unmarked)

Same assay, conditions: 20 μM; without SOS; read-out: KRas G12D mutant: % inh.

inhibition at 20 µM [%] | Structure (SMILES)
51 to 75 | COC(=O)c1nc(C2NCCN2C)nc(O)c1O (centres unmarked)
26 to 50 | COC1CCN(c2nc(-c3nccn3C)nc3sc(-c4cnn(C)c4)c(-c4ccccc4)c23)C1.Cl (centres unmarked)
26 to 50 | COc1ccc(-c2sc3nc(-c4nccn4C)nc(N4CCC(OC)C4)c3c2-c2ccccc2)cn1.Cl (centres unmarked)
51 to 75 | COC1CCN(c2nc(-c3nccn3C)nc3sc(-c4ccnn4C)c(-c4ccccc4)c23)C1.Cl (centres unmarked)
51 to 75 | COc1ncccc1-c1sc2nc(-c3nccn3C)nc(N3CCC(OC)C3)c2c1-c1ccccc1.Cl (centres unmarked)
51 to 75 | COC1CCN(c2nc(-c3nccn3C)nc3sc(-c4cccnc4)c(-c4ccccc4)c23)C1.Cl (centres unmarked)
51 to 75 | COc1cc(-c2sc3nc(-c4nccn4C)nc(N4CCC(OC)C4)c3c2-c2ccccc2)ccn1.Cl (centres unmarked)

These compounds were tested on KRas Q61H mutant in the same assay as above. Conditions: 20 μM; with SOS.
Set-up: species or system human
Experimental: as §1, §2, §3, §4, §5

KRas Q61H mutant + SOS: % inh. | Structure (SMILES)
C (51-75% inhibition) | COC(=O)c1nc(C2NCCN2C)nc(O)c1O (centres unmarked)
D (76-100% inhibition) | COC1CCN(c2nc(-c3nccn3C)nc3sc(-c4cnn(C)c4)c(-c4ccccc4)c23)C1.Cl (centres unmarked)
D (76-100% inhibition) | COc1ccc(-c2sc3nc(-c4nccn4C)nc(N4CCC(OC)C4)c3c2-c2ccccc2)cn1.Cl (centres unmarked)
C (51-75% inhibition) | COC1CCN(c2nc(-c3nccn3C)nc3sc(-c4ccnn4C)c(-c4ccccc4)c23)C1.Cl (centres unmarked)
C (51-75% inhibition) | COc1ncccc1-c1sc2nc(-c3nccn3C)nc(N3CCC(OC)C3)c2c1-c1ccccc1.Cl (centres unmarked)
C (51-75% inhibition) | COC1CCN(c2nc(-c3nccn3C)nc3sc(-c4cccnc4)c(-c4ccccc4)c23)C1.Cl (centres unmarked)
C (51-75% inhibition) | COc1cc(-c2sc3nc(-c4nccn4C)nc(N4CCC(OC)C4)c3c2-c2ccccc2)ccn1.Cl (centres unmarked)

Same assay, conditions: 20 μM; without SOS

KRas Q61H mutant: % inh. | Structure (SMILES)
C (51-75% inhibition) | COC(=O)c1nc(C2NCCN2C)nc(O)c1O (centres unmarked)
B (26-50% inhibition) | COC1CCN(c2nc(-c3nccn3C)nc3sc(-c4cnn(C)c4)c(-c4ccccc4)c23)C1.Cl (centres unmarked)
B (26-50% inhibition) | COc1ccc(-c2sc3nc(-c4nccn4C)nc(N4CCC(OC)C4)c3c2-c2ccccc2)cn1.Cl (centres unmarked)
B (26-50% inhibition) | COC1CCN(c2nc(-c3nccn3C)nc3sc(-c4ccnn4C)c(-c4ccccc4)c23)C1.Cl (centres unmarked)
C (51-75% inhibition) | COc1ncccc1-c1sc2nc(-c3nccn3C)nc(N3CCC(OC)C3)c2c1-c1ccccc1.Cl (centres unmarked)
B (26-50% inhibition) | COC1CCN(c2nc(-c3nccn3C)nc3sc(-c4cccnc4)c(-c4ccccc4)c23)C1.Cl (centres unmarked)
C (51-75% inhibition) | COc1cc(-c2sc3nc(-c4nccn4C)nc(N4CCC(OC)C4)c3c2-c2ccccc2)ccn1.Cl (centres unmarked)

What follows are compounds tested on KRas G12C mutant in the same assay as above. Conditions: 20 μM; with SOS.
Set-up: species or system human
Experimental: as §1, §2, §3, §4, §5

KRas G12C mutant + SOS: % inh. | Structure (SMILES)
C (51-75% inhibition) | COC(=O)c1nc(C2NCCN2C)nc(O)c1O (centres unmarked)
D (76-100% inhibition) | COC1CCN(c2nc(-c3nccn3C)nc3sc(-c4cnn(C)c4)c(-c4ccccc4)c23)C1.Cl (centres unmarked)
D (76-100% inhibition) | COc1ccc(-c2sc3nc(-c4nccn4C)nc(N4CCC(OC)C4)c3c2-c2ccccc2)cn1.Cl (centres unmarked)
C (51-75% inhibition) | COC1CCN(c2nc(-c3nccn3C)nc3sc(-c4ccnn4C)c(-c4ccccc4)c23)C1.Cl (centres unmarked)
C (51-75% inhibition) | COc1ncccc1-c1sc2nc(-c3nccn3C)nc(N3CCC(OC)C3)c2c1-c1ccccc1.Cl (centres unmarked)
D (76-100% inhibition) | COC1CCN(c2nc(-c3nccn3C)nc3sc(-c4cccnc4)c(-c4ccccc4)c23)C1.Cl (centres unmarked)
D (76-100% inhibition) | COc1cc(-c2sc3nc(-c4nccn4C)nc(N4CCC(OC)C4)c3c2-c2ccccc2)ccn1.Cl (centres unmarked)

Same assay, conditions: 20 μM; without SOS

KRas G12C mutant: % inh. | Structure (SMILES)
D (76-100% inhibition) | COC(=O)c1nc(C2NCCN2C)nc(O)c1O (centres unmarked)
C (51-75% inhibition) | COC1CCN(c2nc(-c3nccn3C)nc3sc(-c4cnn(C)c4)c(-c4ccccc4)c23)C1.Cl (centres unmarked)
0 (0% inhibition) | COc1ccc(-c2sc3nc(-c4nccn4C)nc(N4CCC(OC)C4)c3c2-c2ccccc2)cn1.Cl (centres unmarked)
C (51-75% inhibition) | COC1CCN(c2nc(-c3nccn3C)nc3sc(-c4ccnn4C)c(-c4ccccc4)c23)C1.Cl (centres unmarked)
C (51-75% inhibition) | COc1ncccc1-c1sc2nc(-c3nccn3C)nc(N3CCC(OC)C3)c2c1-c1ccccc1.Cl (centres unmarked)
D (76-100% inhibition) | COC1CCN(c2nc(-c3nccn3C)nc3sc(-c4cccnc4)c(-c4ccccc4)c23)C1.Cl (centres unmarked)
C (51-75% inhibition) | COc1cc(-c2sc3nc(-c4nccn4C)nc(N4CCC(OC)C4)c3c2-c2ccccc2)ccn1.Cl (centres unmarked)

The compounds below were run on KRas wild type in the same assay as above. Conditions: 20 μM; with SOS.
Set-up: species or system human
Experimental: as §1, §2, §3, §4, §5

KRas wild type + SOS: % inh. | Structure (SMILES)
B (26-50% inhibition) | COC(=O)c1nc(C2NCCN2C)nc(O)c1O (centres unmarked)
D (76-100% inhibition) | COC1CCN(c2nc(-c3nccn3C)nc3sc(-c4cnn(C)c4)c(-c4ccccc4)c23)C1.Cl (centres unmarked)
D (76-100% inhibition) | COc1ccc(-c2sc3nc(-c4nccn4C)nc(N4CCC(OC)C4)c3c2-c2ccccc2)cn1.Cl (centres unmarked)
C (51-75% inhibition) | COC1CCN(c2nc(-c3nccn3C)nc3sc(-c4ccnn4C)c(-c4ccccc4)c23)C1.Cl (centres unmarked)
C (51-75% inhibition) | COc1ncccc1-c1sc2nc(-c3nccn3C)nc(N3CCC(OC)C3)c2c1-c1ccccc1.Cl (centres unmarked)
C (51-75% inhibition) | COC1CCN(c2nc(-c3nccn3C)nc3sc(-c4cccnc4)c(-c4ccccc4)c23)C1.Cl (centres unmarked)
C (51-75% inhibition) | COc1cc(-c2sc3nc(-c4nccn4C)nc(N4CCC(OC)C4)c3c2-c2ccccc2)ccn1.Cl (centres unmarked)

Same assay, conditions: 20 μM; without SOS

KRas wild type: % inh. | Structure (SMILES)
C (51-75% inhibition) | COC(=O)c1nc(C2NCCN2C)nc(O)c1O (centres unmarked)
B (26-50% inhibition) | COC1CCN(c2nc(-c3nccn3C)nc3sc(-c4cnn(C)c4)c(-c4ccccc4)c23)C1.Cl (centres unmarked)
A (1-25% inhibition) | COc1ccc(-c2sc3nc(-c4nccn4C)nc(N4CCC(OC)C4)c3c2-c2ccccc2)cn1.Cl (centres unmarked)
B (26-50% inhibition) | COC1CCN(c2nc(-c3nccn3C)nc3sc(-c4ccnn4C)c(-c4ccccc4)c23)C1.Cl (centres unmarked)
C (51-75% inhibition) | COc1ncccc1-c1sc2nc(-c3nccn3C)nc(N3CCC(OC)C3)c2c1-c1ccccc1.Cl (centres unmarked)
C (51-75% inhibition) | COC1CCN(c2nc(-c3nccn3C)nc3sc(-c4cccnc4)c(-c4ccccc4)c23)C1.Cl (centres unmarked)
C (51-75% inhibition) | COc1cc(-c2sc3nc(-c4nccn4C)nc(N4CCC(OC)C4)c3c2-c2ccccc2)ccn1.Cl (centres unmarked)
